According to ChEMBL document CHEMBL1134310, “3-(Arylacetylamino)-N-methylbenzamides: a novel class of selective anti-Helicobacter pylori agents” (2001):
Converted amounts (≈) assume the structure as drawn.

Tests used:
Format in all cases: functional
[1] = test system: Helicobacter pylori; test: Minimum inhibitory concentration against Helicobacter pylori.
[2] = test system: Helicobacter pylori; test: Minimum inhibitory concentration against Helicobacter pylori under acidic conditions at pH 5.0
[3] = test system: Helicobacter pylori; test: Minimum inhibitory concentration against Helicobacter pylori under acidic conditions at pH 7.0
[4] = test system: Helicobacter pylori; test: Minimum inhibitory concentration against Helicobacter pylori under acidic conditions at pH 6.0

Row | Compound | MIC [1] | further results
1 | CNC(=O)c1cccc(NC(=O)Cc2cccc(OC)c2)c1 | 0.78 µg/mL (≈ 2.61 µM) | 
2 | CNC(=O)c1cccc(NC(=O)Cc2cccc(C)c2)c1 | 0.39 µg/mL (≈ 1.38 µM) | 
3 | CNC(=O)c1cccc(NC(=O)CCc2ccccc2)c1 | 12.5 µg/mL (≈ 44.3 µM) | 
4 | CNC(=O)c1cccc(NC(=O)Cc2c[nH]c3ccccc23)c1 | 0.78 µg/mL (≈ 2.54 µM) | 
5 | CNC(=O)c1cccc(NC(=O)Cc2ccccc2)c1 | 1.56 µg/mL (≈ 5.81 µM) | 
6 | CNC(=O)c1cccc(NC(=O)COc2cccc3ccccc23)c1 | 0.1 µg/mL (≈ 0.299 µM) | 
7 | CNC(=O)c1cccc(NC(=O)Cc2cccc(Cl)c2)c1 | 0.39 µg/mL (≈ 1.29 µM) | 
8 | CNC(=O)c1cccc(NC(=O)Cc2ccccc2Cl)c1 | 3.12 µg/mL (≈ 10.3 µM) | 
9 | CNC(=O)c1cccc(NC(=O)Cc2ccc3ccccc3c2)c1 | 0.05 µg/mL (≈ 0.157 µM) | MIC [2]: 0.063 µg/mL (≈ 0.198 µM); MIC [3]: 0.063 µg/mL (≈ 0.198 µM); MIC [4]: 0.063 µg/mL (≈ 0.198 µM)
10 | CNC(=O)c1cccc(NC(=O)COc2ccccc2)c1 | 3.12 µg/mL (≈ 11 µM) | 
11 | CCOC(=O)c1cccc(NC(=O)Cc2cccc(Br)c2)c1 | > 100 µg/mL | 
12 | NC(=O)c1cccc(NC(=O)Cc2cccc(Br)c2)c1 | 100 µg/mL (≈ 300 µM) | 
13 | CNC(=O)c1cccc(NC(=O)Cc2ccc3c(c2)OCO3)c1 | 0.78 µg/mL (≈ 2.5 µM) | 
14 | CNC(=O)c1cccc(NC(=O)OCc2cccc3ccccc23)c1 | 0.05 µg/mL (≈ 0.15 µM) | 
15 | CN(C)C(=O)c1cccc(NC(=O)Cc2cccc(Br)c2)c1 | 25 µg/mL (≈ 69.2 µM) | 
16 | CC1(C)S[C@@H]2[C@H](NC(=O)[C@H](N)c3ccc(O)cc3)C(=O)N2[C@H]1C(=O)O [AMOXICILLIN] |  | MIC [2]: 0.5 µg/mL (≈ 1.37 µM); MIC [3]: 0.031 µg/mL (≈ 0.0848 µM); MIC [4]: 0.125 µg/mL (≈ 0.342 µM)
17 | CC[C@H]1OC(=O)[C@H](C)[C@@H](O[C@H]2C[C@@](C)(OC)[C@@H](O)[C@H](C)O2)[C@H](C)[C@@H](O[C@@H]2O[C@H](C)C[C@H](N(C)C)[C@H]2O)[C@](C)(OC)C[C@@H](C)C(=O)[C@H](C)[C@@H](O)[C@]1(C)O [CLARITHROMYCIN] | 0.05 µg/mL (≈ 0.0668 µM) | MIC [2]: 2 µg/mL (≈ 2.67 µM); MIC [3]: 0.063 µg/mL (≈ 0.0842 µM); MIC [4]: 0.5 µg/mL (≈ 0.668 µM)

The next lines start with results.

Row | MIC [1] | Compound | further results
18 | 0.78 µg/mL (≈ 2.58 µM) | CNC(=O)c1cccc(NC(=O)Cc2ccc(Cl)cc2)c1 | 
19 | 0.1 µg/mL (≈ 0.299 µM) | CNC(=O)c1cccc(NC(=O)OCc2ccc3ccccc3c2)c1 | 
20 | 3.12 µg/mL (≈ 8.64 µM) | CCNC(=O)c1cccc(NC(=O)Cc2cccc(Br)c2)c1 | 
21 | 3.12 µg/mL (≈ 9.96 µM) | CNC(=O)c1cccc(NC(=O)Cc2cccc([N+](=O)[O-])c2)c1 | 
22 | 3.12 µg/mL (≈ 10.9 µM) | CNC(=O)c1cccc(NC(=O)Cc2cccc(F)c2)c1 | 
23 | 0.2 µg/mL (≈ 0.627 µM) | CNC(=O)c1cccc(NC(=O)OCc2ccc(Cl)cc2)c1 | 
24 | 0.78 µg/mL (≈ 2.25 µM) | CNC(=O)c1cccc(NC(=O)Cc2ccc(Br)cc2)c1 | 
25 | 0.2 µg/mL (≈ 0.566 µM) | CNC(=O)c1cccc(NC(=O)OCc2c(Cl)cccc2Cl)c1 | 
26 | 0.39 µg/mL (≈ 1.1 µM) | CNC(=O)c1cccc(NC(=O)COc2cccc(Cl)c2Cl)c1 | 
27 | 0.78 µg/mL (≈ 2.5 µM) | CNC(=O)c1cccc(NC(=O)CCc2ccccc2OC)c1 | 
28 | 12.5 µg/mL (≈ 34.4 µM) | CONC(=O)c1cccc(NC(=O)Cc2cccc(Br)c2)c1 | 
29 | 12.5 µg/mL (≈ 35.8 µM) | O=C(Cc1cccc(Br)c1)Nc1cccc(C(=O)NO)c1 | 
30 | 0.78 µg/mL (≈ 2.08 µM) | CNC(=O)c1cccc(NC(=O)Cc2cccc(OCc3ccccc3)c2)c1 | 
31 | 0.39 µg/mL (≈ 1.17 µM) | CNC(=O)c1cccc(NC(=O)COc2ccc3ccccc3c2)c1 | 
32 | 0.1 µg/mL (≈ 0.314 µM) | CNC(=O)c1cccc(NC(=O)Cc2cccc3ccccc23)c1 | MIC [2]: 0.125 µg/mL (≈ 0.393 µM); MIC [3]: 0.125 µg/mL (≈ 0.393 µM); MIC [4]: 0.125 µg/mL (≈ 0.393 µM)
33 | 0.1 µg/mL (≈ 0.308 µM) | CNC(=O)c1cccc(NC(=O)Cc2csc3ccccc23)c1 | MIC [2]: 0.25 µg/mL (≈ 0.771 µM); MIC [3]: 0.25 µg/mL (≈ 0.771 µM); MIC [4]: 0.25 µg/mL (≈ 0.771 µM)
34 | > 100 µg/mL | O=C(Cc1cccc(Br)c1)Nc1cccc(C(=O)O)c1 | 
35 | 0.39 µg/mL (≈ 1.12 µM) | CNC(=O)c1cccc(NC(=O)Cc2cccc(Br)c2)c1 | 
36 | 12.5 µg/mL (≈ 45.6 µM) | CNC(=O)c1cccc(NC(=O)CC2CCCCC2)c1 | 
37 | 6.25 µg/mL (≈ 22 µM) | CNC(=O)c1cccc(NC(=O)Cc2cccc(O)c2)c1 | 
38 | 0.1 µg/mL (≈ 0.335 µM) | CNC(=O)c1cccc(NC(=O)OCc2ccc(C)cc2)c1 | 
